Results from ChEMBL document CHEMBL1141962, “Angiogenesis inhibitors derived from thalidomide” (2005).

Key:
Assay type in all cases: functional
Settings in all cases: Homo sapiens
[1] = test system: HUVEC; assay: Inhibitory activity in HUVEC tube formation assay at 100 uM
[2] = test system: HUVEC; assay: Inhibitory activity in HUVEC tube formation assay at 10 uM
[3] = test system: HUVEC; assay: Inhibitory activity in HUVEC tube formation assay at 30 uM

Q: With `Nc1cccc2c1C(=O)N(C1CCC(=O)NC1=O)C2=O` (configuration not stated) [POMALIDOMIDE] as the molecule, how does the inhibition at 100 µM [1] read?
A: Its inhibition at 100 µM is 21%.

Q: With `Nc1cccc2c1CN(C1CCC(=O)NC1=O)C2=O` (configuration not stated) [LENALIDOMIDE] as the molecule, how does the inhibition at 100 µM [1] read?
A: Its inhibition at 100 µM is 32%.

Q: Which inhibition at 100 µM [1] does the source give for `O=C1CCC(N2C(=O)c3cccc([N+](=O)[O-])c3C2=O)C(=O)N1` (configuration not stated) here?
A: Its inhibition at 100 µM is 32%.

Q: `O=C1CCC(N2C(=O)c3ccccc3C2=O)C(=O)N1` (configuration not stated) [THALIDOMIDE] was tested. Which inhibition at 100 µM [1] did it give?
A: Its inhibition at 100 µM is 26%.

Q: Which inhibition at 10 µM [2] does the source give for `CC(C)c1cccc(C(C)C)c1N1C(=O)c2ccc(O)cc2C1=O` here?
A: Its inhibition at 10 µM is 8%.

Q: What about the inhibition at 30 µM [3] of the same molecule?
A: The inhibition at 30 µM was 41%.

Q: What about the inhibition at 100 µM [1] of the same molecule?
A: Its inhibition at 100 µM is 59%.
